Measurements as given in patent publication US5098613A, “Anti-inflammatory agents” (Eli Lilly and Company, priority 1990, dated 1992).

Experiments:
[1] = molecular target: T1, leukotriene B4 specific receptor on the membrane of human neutrophils (Homo sapiens, UniProt Q15722); assay: Inhibition of Binding of ^3 H-LTB4 to Peripheral Human Neutrophils; conditions: 4° C., 10 minutes; for inhibition at 10 µM: drug concentration 10^-5 M, read-out: LTB4 Binding Inhibition; for inhibition at 1 µM: drug concentration 10^-6 M; for inhibition at 0.1 µM: drug concentration 10^-7 M
T1 construct: incubating neutrophils (1×10^7 cells) with 0.1-0.2 nM ^3 H-LTB4; endogenous in cells; host or cells: human peripheral blood neutrophils (buffy coats of two blood donors)
T1 sequence (Q15722 whole entry): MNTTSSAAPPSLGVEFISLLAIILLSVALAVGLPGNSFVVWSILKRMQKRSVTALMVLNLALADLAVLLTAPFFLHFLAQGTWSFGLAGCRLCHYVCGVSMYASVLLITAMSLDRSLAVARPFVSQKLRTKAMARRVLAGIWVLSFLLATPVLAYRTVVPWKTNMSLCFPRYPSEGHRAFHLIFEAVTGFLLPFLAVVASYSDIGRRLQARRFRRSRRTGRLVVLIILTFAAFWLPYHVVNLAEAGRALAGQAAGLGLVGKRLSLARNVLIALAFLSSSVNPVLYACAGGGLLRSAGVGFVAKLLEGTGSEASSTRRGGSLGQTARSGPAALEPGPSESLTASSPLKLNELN
Outline: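 Freshly isolated human donor neutrophils (1×10^7 cells) in HBSS/0.1% ovalbumin pH 7.3 were incubated with 0.1-0.2 nM ^3H-LTB4 and compound at 1×10^-5 or 1×10^-6 M for 10 min at 4 °C. Bound ligand was separated by centrifugation through phthalate oil and counted, then corrected for nonspecific binding and compared with compound-free control.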

[2] = test system: shock after E. coli LPS and galactosamine (GALN) challenge; assay: Mouse Endotoxin Shock Assay; assay type: in vivo, C57BL/6 male mice; conditions: LPS/GALN s.c. challenge, results 48 hours after challenge, Reed Muench Method
Experimental: Compounds were given to 18-20 g C57BL/6 male mice using various regimens depending upon mode of administration. Control animals received corresponding vehicles only. The mice were then challenged with 0.2 ml of chromatographically purified 0111:B4 E. coli LPS and galactosamine hydrochloride (GALN) given subcutaneously (back of the neck). GALN was given at an approximate dose of 500 mg/kg whereas the LPS dose ranged between 0.3-1.2 μg/mouse (15-60 μg/k9). Control animals generally die of shock 7-15 hours after administration of LPS/GALN although a small number (0-5%) may die 24-48 hours after such administration. Calculation of the EDso for each compound was performed using the Reed Muench Method for results obtained 48 hours after challenge.

[3] = test system: Arachidonic Acid Induced Ear Edema; assay: Arachidonic Acid-Induced Ear Edema Assay; assay type: in vivo, Female BALB/C mice; conditions: Mus musculus, 1 h, topical, one hour prior to arachidonic acid, read-out: Percent Inhibition of Ear Swelling; for inhibition in vivo at 1 %: 1% in ethanol gel; for inhibition in vivo at 0.05 %: 0.05% in ethanol gel
Experimental: Female BALB/C mice (Charles River; 18-20 rams) were divided into groups of five. Arachidonic acid was dissolved in ethanol at a concentration of 200 mg/ml. Each mouse received 2 mg/ear of arachidonic acid on the inner surface of the right ear. This dose of phlogistic was applied by an automatic pipette in 10 mcl volumes. The left ear (control) received ethanol. Drugs were applied topically in an ethanol-based gel to the entire outer surface of both ears one hour prior to arachidonic acid application. Edema was measured by the increase in ear weight. An hour after arachidonic acid solution or vehicle was applied, an ear sample of 7 mm in diameter was obtained from both ears. Ear edema was calculated by subtracting the […], dividing by the weight of the left/Control ear, and averaging the results for each group of mice according to compound and concentration.

[4] = test system: IL-1 induced T-cell Proliferation; assay: Anti IL-1 Activity (Thymocyte Assay): suppression of IL-1 induced T-cell proliferation; assay type: cell-based, C3H/HeJ male mice; conditions: mouse thymocytes, 48 hours, read-out: Percent T-cell suppression; for inhibition at 1 µg/mL: 1 mcg/ml; for inhibition at 10 µg/mL: 10 mcg/ml
Experimental: Thymus from 3-4 week old C3H/HeJ male mice and were passed through a #100 mesh screen to make a single cell suspension. The cells were suspended in RPMI-1640 supplemented with 2×10^-5 M 2-mercaptoethanol, 3% fetal calf serum, and 1% Penicillin/Streptomycin. The cell suspension was placed in a tissue culture flask and incubated at 37° C. in 5% carbon dioxide in air for 1-2 hours. The thymocytes were decanted, leaving adherent cells behind, and the liquid was centrifuged at 1400 rpm for 10 minutes. After decanting the supernatant, the cells were resuspended and counted with a hemocytometer. The density was adjusted to […]. Fifty μ1 of the suspension were added to each well of a 96-well microtiter plate, followed by the addition of 25 μl of PHA and 25 μl IL-1 (1:25 dilution of a 10 mcg/ml stock solution) per well.
Each compound to be tested was dissolved in 30% DMSO/70% PBS to make a stock solution of 1 mg/ml. Fifteen μl of each compound were added to 300 μl of media in the serial dilution plate. Twenty-five μl of each drug were added to the test plate in quadruplicate wells across the plate. The plate was incubated at 37° C. in 5% carbon dioxide in air for 48 hours. The wells were pulsed with tritiated thymidine (5 μCi.well) for 4 hours before harvesting on a Skatron cell harvester. The filter discs were placed in mini-vials, scintillation fluid (Tol-Pop) was added, and the vials counted. The percent of counts for each vial compared with control samples wherein no compound was added (vehicles only) was determined for each compound and are reported as Table III below as the percent T-ce1 suppression.

[5] = test system: inflammation created by injecting carrageenin into the hind paws of rats; assay: Carrageenin Assay; assay type: in vivo; conditions: Rattus norvegicus, ip, 50 mg/kg i.p., prior to carrageenin injection, read-out: Percent Inhibition (Antiinflammatory Activity in the Carrageenin Assay)
Experimental: The compounds were evaluated for antiinflammatory activity in the test method described by C. A. Winter, Proc. Soc. Exp. Biol. Med., 111, 544 (1962). In this test, inflammation is created by injecting carrageenin into the hind paws of rats. Test compounds are administered prior to injection to determine percent inhibition of the subsequent inflammation in comparison with control animals.

| Compound | inhibition at 10 µM [1] | inhibition at 1 µM [1] | ED50 [2] | inhibition in vivo at 0.028 % ([3]; 0.028% in ethanol gel) | inhibition at 1 µg/mL [4] | inhibition at 10 µg/mL [4] | inhibition in vivo at 50 mg/kg [5] | inhibition in vivo at 1 % [3] | inhibition in vivo at 0.05 % [3] | inhibition in vivo at 0.1 % ([3]; 0.1% in ethanol gel) | inhibition at 0.1 µM [1] |
| --- | --- | --- | --- | --- | --- | --- | --- | --- | --- | --- | --- |
| CCc1cc(C(C)=O)c(O)cc1OCCCCCCS(C)(=O)=O [Example 83, 2-Hydroxy-4-[6-(methylsulfonyl)hexyl-oxy]-5-ethylacetophenone] | 98% | 61% | > 50 mg/kg | 59% | 29% | 43% | 26% |  |  |  |  |
| CCc1cc(C(C)=O)c(O)cc1OCCCCc1nnnn1C [Example 122, 2-Hydroxy-4-[4-(1-methyl-lH-tetrazol-5-yl)butoxy]-5-ethylacetophenone] | 66% | 24% | 42 mg/kg |  | 37% | 87% | 53% | 10% |  |  |  |
| CCc1cc(C(C)=O)c(O)cc1OCCCCCC[S+](C)[O-] (stereo not shown) [Example 82, 2-Hydroxy-4-[6-(methylsulfinyl)hexyl-oxy]-5-ethylacetophenone] | 91% | 50% | > 50 mg/kg |  | 21% | 88% | 31% | 9% |  |  |  |
| C=CCc1cc(C(C)=O)c(O)cc1OCc1cccc(C)c1 [Example 51, 2-Hydroxy-4-(3-methylbenzyloxy)-5-allyl-acetophenone] | 24% | 32% | 27 mg/kg |  |  |  | 79% |  | 43% | 31% |  |
| CCc1cc(C(C)=O)c(O)cc1OCCCCCC(C)(C)C#N [Example 68, 4-(6-Cyano-6-methylheptyloxy)-5-ethyl-2-hydroxyacetophenone] | 84% | 53% | > 50 mg/kg |  | 13% | 99% | 33% | 46% |  |  |  |
| CCc1cc(C(C)=O)c(O)cc1OCCCCCC(C)(C)c1nn[nH]n1 [Example 108, 5-Ethyl-2-hydroxy-4-[6-methyl-6-(1H-tetrazol5-yl)heptyloxy]acetophenone] | 105% | 96% | > 50 mg/kg |  |  |  | 61% | 60% |  |  | 60% |
| C=CCc1cc(C(C)=O)c(O)cc1OCc1cccc(C#N)c1 [Example 50] | 67% | 66% | 9.5 mg/kg |  |  |  | 50 to 82% |  | 29 to 47% |  | 25% |
